Earlier results on two compounds are cited in patent US6756047B2, “Method and compositions for treating persistent pulmonary hypertension using aralkyl ester soft drugs” (The University of Toledo, priority 2000, dated 2004).

The conditions of data set [1]: eye examination use.
For data set [2] the following is noted: long duration of action; used clinically.

As for `CN1[C@@H]2CC[C@H]1C[C@@H](OC(=O)C(CO)c1ccccc1)C2` (some centres unmarked) [Atropine, atropine], in data set [1], the duration entry was “several hour”.
Consider `CC(C)NCC(O)COc1cccc2ccccc12` (centres unmarked) [Structure 1, propranolol], for which, in data set [2], the “half-life (duration of action)” value was “several hour”.
